The values that follow come from patent publication US20100130612A1, “COMPOSITION CONTAINING CHITOSAN FOR SUSTAINED DRUG RELEASE” (THE JORDANIAN PHARMACEUTICAL MANUFACTURING CO., priority 2005, published 2010).

The data set in a line: Solubility of acidic drugs in acidic media when combined with chitosan polymer solution. Particulars: pH<5.0; combined with a respective chitosan polymer solution. Format: physicochemical.

`CC(C)Cc1ccc(C(C)C(=O)O)cc1.[Na]` (centres unmarked) [ibuprofen sodium]: the “solubility in acidic media (in words)” value is on record as “soluble in acidic media”. On to `O=C(O)Cc1ccccc1Nc1c(Cl)cccc1Cl` [diclofenac sodium], for which the “solubility in acidic media (in words)” value is “soluble in acidic media”.
